Reference: patent US20140350117A1, “Topical Scar Treatment Composition and Method of Using Same” (PROFESSIONAL COMPOUNDING CENTERS OF AMERICA, priority 2013, published 2014)
Where a name gives a salt, the structure may show the parent alone.

Legend:
[1] = tested on: keloid and hypertrophic scar cells; settings: stated to correspond to about 0.01% tamoxifen citrate; cited from earlier work
[2] = tested on: TGF-β; test: luciferase bioassay utilizing mink lung epithelial cells for total TGF-β in keloid fibroblasts culture; format: cell-based; settings: 48-hour exposure
Description: TGF-β is correlated with luciferase activity and reported in relative light units.

[3] = tested on: fibroblast cells; settings: cited from earlier work
[4] = tested on: collagen; settings: cited from earlier work

CC/C(=C(\c1ccccc1)c1ccc(OCCN(C)C)cc1)c1ccccc1 [tamoxifen citrate]
concentrations having a deadly effect on keloid and hypertrophic scar cells [1]: greater than 20 μM
total TGF-β levels [2]: dose-dependent decrease
percent reduction of TGF-β ([2]; about 8 μM): about 75%
TGF-β level after treatment ([2]; about 8 μM, reduced from about 200 pg/ml): about 50 pg/ml
proliferation of normal dermal and keloid fibroblasts [3]: decrease proliferation
synthesis of collagen by keloid fibroblasts [4]: decreasing the synthesis of collagen
